Earlier results in patent US20140038836A1, “Novel Pharmacogene Single Nucleotide Polymorphisms and Methods of Detecting Same” (priority 2012, published 2014).
Read-outs that look alike come from different tables or passages of the source.

Columns and labels:
[1] = biological target: T1, ADRA2A (alpha2A subtype alpha-2-adrenergic receptor) (Homo sapiens, UniProt P08913); settings: for rank order for antagonists: antagonists of the alpha2A receptor; for rank order of potency for agonists: agonists of the alpha2A receptor
T1 sequence (P08913 1-465): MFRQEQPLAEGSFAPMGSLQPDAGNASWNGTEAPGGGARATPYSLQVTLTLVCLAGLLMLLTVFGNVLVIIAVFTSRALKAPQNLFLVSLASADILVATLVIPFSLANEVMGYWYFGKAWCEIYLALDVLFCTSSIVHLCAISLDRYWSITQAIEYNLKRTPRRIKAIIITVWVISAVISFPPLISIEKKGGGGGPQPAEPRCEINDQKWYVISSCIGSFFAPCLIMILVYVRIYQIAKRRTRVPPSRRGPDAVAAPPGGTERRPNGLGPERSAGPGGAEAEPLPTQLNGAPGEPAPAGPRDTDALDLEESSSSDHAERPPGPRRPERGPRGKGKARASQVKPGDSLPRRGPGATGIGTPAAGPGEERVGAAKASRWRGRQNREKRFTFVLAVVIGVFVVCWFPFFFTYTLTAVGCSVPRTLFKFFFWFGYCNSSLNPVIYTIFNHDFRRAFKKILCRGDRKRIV

[2] = system: psychotic Caucasian patients; settings: 3435CC or 2677GG genotypes versus heterozygous or TT carriers
[3] = homozygote ABCB1 3435TT carriers
[4] = system: patients of Asian ethnicity with Major Depressive Disorder; settings: carriers of 3435TT (rs1045642) genotype, p=0.001
[5] = system: Caucasian patients with major depression; settings: ABCB1 3435TT allele; P=0.042, 95% CI 1.01-1.86
[6] = system: patients with schizophrenia; settings: (T) allele of rs3813929
[7] = system: Japanese major depression sample; settings: 3435TT genotype (p=0.0008), haplotype block 3435C-2677G-1236T, 6 weeks
[8] = system: schizophrenic Chinese patients from Shanghai; settings: 230-bp allele of (GT)n repeat or 230-bp/C-270/rs6265G haplotype versus other alleles or haplotypes
[9] = system: patients diagnosed with generalized anxiety disorder; settings: carriers of HTR2A rs7997012 G-allele

Question: For C=CCc1ccccc1OCC(O)CNC(C)C (stereo not shown) [alprenolol], which “rank order for antagonists” value [1] is on record?
Answer: yohimbine>phentolamine=mianserine>chlorpromazine=spiperone=prazosin>propanolol>alprenolol=pindolol

Question: For CN(C)CCC=C1c2ccccc2CCc2ccccc21 [amitriptyline], which P-gp substrate property (P-gp) is on record?
Answer: substrates of P-gp

Question: With CN(C)CCCN1c2ccccc2Sc2ccc(Cl)cc21 [chlorpromazine] as the compound, how does the “rank order for antagonists” value [1] read?
Answer: yohimbine>phentolamine=mianserine>chlorpromazine=spiperone=prazosin>propanolol>alprenolol=pindolol

Question: For CN(C)CCCC1(c2ccc(F)cc2)OCc2cc(C#N)ccc21 (stereo not shown) [citalopram], which P-gp substrate property (P-gp) is on record?
Answer: substrates of P-gp

Question: Which “rank order of potency for agonists” value [1] does the source give for Clc1cccc(Cl)c1N=C1NCCN1 [clonidine] here?
Answer: oxymetazoline>clonidine>epinephrine>norepinephrine>phenylephrine>dopamine>p-synephrine>p-tyramine>serotonin=p-octopamine

Question: Which dose-normalized clozapine levels [2] does the source give for CN1CCN(C2=Nc3cc(Cl)ccc3Nc3ccccc32)CC1 [clozapine] here?
Answer: significantly lower

Question: Which “digoxin plasma levels after oral administration” value [3] does the source give for C[C@H]1O[C@@H](O[C@H]2[C@@H](O)C[C@H](O[C@H]3[C@@H](O)C[C@H](O[C@H]4CC[C@@]5(C)[C@H](CC[C@@H]6[C@@H]5C[C@@H](O)[C@]5(C)[C@@H](C7=CC(=O)OC7)CC[C@]65O)C4)O[C@@H]3C)O[C@@H]2C)C[C@H](O)[C@@H]1O [digoxin] here?
Answer: increased

Question: For CNC[C@H](O)c1ccc(O)c(O)c1 [epinephrine], which “rank order of potency for agonists” value [1] is on record?
Answer: oxymetazoline>clonidine>epinephrine>norepinephrine>phenylephrine>dopamine>p-synephrine>p-tyramine>serotonin=p-octopamine

Question: Which “remission on the antidepressant” value [4] does the source give for CN(C)CCC[C@@]1(c2ccc(F)cc2)OCc2cc(C#N)ccc21 [escitalopram] here?
Answer: slower remission

Question: With CN1CCN2c3ccccc3Cc3ccccc3C2C1 (stereo not shown) [mianserine] as the compound, how does the “rank order for antagonists” value [1] read?
Answer: yohimbine>phentolamine=mianserine>chlorpromazine=spiperone=prazosin>propanolol>alprenolol=pindolol

Question: For CN1CCN2c3ncccc3Cc3ccccc3C2C1 (stereo not shown) [mirtazapine], which P-gp substrate property (P-gp) is on record?
Answer: not substrates of P-gp

Question: Which “rank order of potency for agonists” value [1] does the source give for NC[C@H](O)c1ccc(O)c(O)c1 [norepinephrine] here?
Answer: oxymetazoline>clonidine>epinephrine>norepinephrine>phenylephrine>dopamine>p-synephrine>p-tyramine>serotonin=p-octopamine

Question: With CNCCC=C1c2ccccc2CCc2ccccc21 [nortriptyline] as the compound, how does the “OR for nortriptyline-induced postural hypotension” value [5] read?
Answer: 1.37

Question: With Cc1cc2c(s1)Nc1ccccc1N=C2N1CCN(C)CC1 [olanzapine] as the compound, how does the “effect on weight gain” value [6] read?
Answer: protective effect against weight-gain

Question: Which “rank order of potency for agonists” value [1] does the source give for Cc1cc(C(C)(C)C)c(O)c(C)c1CC1=NCCN1 [oxymetazoline] here?
Answer: oxymetazoline>clonidine>epinephrine>norepinephrine>phenylephrine>dopamine>p-synephrine>p-tyramine>serotonin=p-octopamine

Question: With NCC(O)c1ccc(O)cc1 (stereo not shown) [p-octopamine] as the compound, how does the “rank order of potency for agonists” value [1] read?
Answer: oxymetazoline>clonidine>epinephrine>norepinephrine>phenylephrine>dopamine>p-synephrine>p-tyramine>serotonin=p-octopamine

Question: Which “rank order of potency for agonists” value [1] does the source give for CNCC(O)c1ccc(O)cc1 (stereo not shown) [p-synephrine] here?
Answer: oxymetazoline>clonidine>epinephrine>norepinephrine>phenylephrine>dopamine>p-synephrine>p-tyramine>serotonin=p-octopamine

Question: Which “rank order of potency for agonists” value [1] does the source give for NCCc1ccc(O)cc1 [p-tyramine] here?
Answer: oxymetazoline>clonidine>epinephrine>norepinephrine>phenylephrine>dopamine>p-synephrine>p-tyramine>serotonin=p-octopamine

Question: Which results are given for Fc1ccc([C@@H]2CCNC[C@H]2COc2ccc3c(c2)OCO3)cc1 [paroxetine]?
Answer: P-gp substrate property (P-gp): substrates of P-gp; response to paroxetine [7]: poor response

Question: With Cc1ccc(N(CC2=NCCN2)c2cccc(O)c2)cc1 [phentolamine] as the compound, how does the “rank order for antagonists” value [1] read?
Answer: yohimbine>phentolamine=mianserine>chlorpromazine=spiperone=prazosin>propanolol>alprenolol=pindolol

Question: Which “rank order for antagonists” value [1] does the source give for CC(C)NCC(O)COc1cccc2[nH]ccc12 (stereo not shown) [pindolol] here?
Answer: yohimbine>phentolamine=mianserine>chlorpromazine=spiperone=prazosin>propanolol>alprenolol=pindolol

Question: Which response to risperidone [8] does the source give for Cc1nc2n(c(=O)c1CCN1CCC(c3noc4cc(F)ccc34)CC1)CCCC2 [risperidone] here?
Answer: better response

Question: And the AUC of risperidone (3435TT versus 3435CC subjects who were CYP2D6*10/*10, P=0.001)?
Answer: higher

Question: And the “metabolic ratios of risperidone” value (3435TT versus 3435CC with CYP2D6*10/*10, P=0.006)?
Answer: higher

Question: What about the AUC of risperidone (between ABCB1 3435C>T genotypes, healthy subjects (n=72), 2 mg) of the same compound?
Answer: no significant differences

Question: For NCCc1c[nH]c2ccc(O)cc12 [serotonin], which “rank order of potency for agonists” value [1] is on record?
Answer: oxymetazoline>clonidine>epinephrine>norepinephrine>phenylephrine>dopamine>p-synephrine>p-tyramine>serotonin=p-octopamine

Question: With O=C(CCCN1CCC2(CC1)C(=O)NCN2c1ccccc1)c1ccc(F)cc1 [spiperone] as the compound, how does the “rank order for antagonists” value [1] read?
Answer: yohimbine>phentolamine=mianserine>chlorpromazine=spiperone=prazosin>propanolol>alprenolol=pindolol

Question: Which “treatment outcome over time” value [9] does the source give for COc1ccc(C(CN(C)C)C2(O)CCCCC2)cc1 (stereo not shown) [venlafaxine XR] here?
Answer: better treatment outcome

Question: With COc1ccc(C(CN(C)C)C2(O)CCCCC2)cc1 (stereo not shown) [venlafaxine] as the compound, how does the P-gp substrate property (P-gp) read?
Answer: substrates of P-gp

Question: Which “rank order for antagonists” value [1] does the source give for COC(=O)[C@@H]1[C@H]2C[C@H]3c4[nH]c5ccccc5c4CCN3C[C@@H]2CC[C@@H]1O [yohimbine] here?
Answer: yohimbine>phentolamine=mianserine>chlorpromazine=spiperone=prazosin>propanolol>alprenolol=pindolol
